Four compounds from patent publication US20230181027A1, “METHODS AND MATERIALS FOR TREATING NEUROMYELITIS OPTICA SPECTRUM DISEASES” (Mayo Foundation for Medical Education and Research, priority 2019, published 2023) can be followed below.

Assay [1] relates to murine model of NMO. Description: Rotarod test (latency to fall) in murine model of NMO with intrathecal NMO-IgG infusion. Type of assay: in vivo, mice. The text has this: To investigate the cellular and molecular mechanisms underlying NMO pathology, a murine model was developed that utilizes IgG purified from NMO patient serum (NMO-IgG) or monoclonal AQP4-specific IgG. IgG collected from healthy individuals, or from healthy control subjects (control-IgG), or a control monoclonal IgG of irrelevant specificity was used in each experiment. NMO-IgG and control-IgG was purified by protein G adsorption (FIG. 1). An osmotic mini-pump delivery system loaded with either NMO-IgG, AQP4-IgG or control-IgG was placed subcutaneously and IgG was infused continuously into the spinal subarachnoid space via intrathecal catheter for 5 to 7 days (FIG. 2A). […] Gait analysis was also performed using ink tracking as described elsewhere (see, e.g., Zhang et al., J. Autoimmun. 53:67-77 (2014)). […] After 5 days of either […], 3 µg/µL, or 1 µg/µL NMO-IgG treatment, stride lengths decreased from an average of 5.7 cm to 2.6, 3.8, and 5.0 cm respectively (FIGS. 2C and 2D).
A 3.5 cm polyurethane-silicone catheter (Alzet, CA) was inserted at the condylar canal to accesses the subarachnoid space at the cisterna magna and extended to lumbar level of spinal cord. Five days later an osmotic mini-pump delivery system, containing either NMO-IgG or control-IgG, was placed subcutaneously over the right shoulder. IgG was delivered continuously for 5-7 days (1-10 µg/day) (FIG. 2A).
The rotarod tests were performed using a five-lane Rotarod apparatus (Med Assocaites Inc). The rotarod speed started from 4 rounds per minute and uniformly accelerated to 40 rounds per minute over 5 minutes. Each mouse was tested for 3 times with 15 minute intervals. For gait analysis, mouse fore and hind limbs were covered by different color ink and allowed to walk freely across a narrow strip of paper. Stride length of hind limbs was reported as the mean of 5 sequential steps.
Minocycline hydrochloride was dissolved in PBS with 1% DMSO at 30 µg/µL and mixed with 20 µg/µL NMO-IgG to make a mixture of 15 µg/µL minocycline and 10 µg/µL NMO-IgG. […]
A general note: The rotarod test checks motor coordination on a turning rod.

Assay [2] concerns astrocyte complement C3. Description: Complement C3 and GFAP double staining of astrocytes in L4 spinal cord. Conditions: minocycline co-infusion with NMO-IgG. Type of assay: in vivo, mice. The text has this: Astrocytes exposed in culture to NMO-IgG increase their production and secretion of all complement components, except C1q, which is made by activated microglia (see, Howe et al., Glia 62:692-708 (2014)). […] In contrast, C3 expression was principally restricted to the lumen of blood vessels following control-IgG exposure. The percentage of C3^+ astrocytes in spinal cord of mice receiving NMO-IgG was ~5-fold higher than that of control-IgG recipients (FIG. 10A). C3 upregulation in astrocytes is independent of microglia, as a similar C3 increase was found after microglia ablation (FIG. 11).
(§1) Mice were deeply anaesthetized with isoflurane (5% in O2) and perfused transcardially with 20 mL PBS followed by 20 mL of cold 4% paraformaldehyde (PFA) in PBS. The spinal cord was removed and post-fixed with 4% PFA for 6 hours at 4° C. Samples were then transferred to 30% sucrose in PBS overnight. Sample sections ([…] in thickness) were prepared on gelatin-coated glass slide with a cryostat (Leica). […] Cell counting and fluorescent signal intensity was quantified using ImageJ software (National Institutes of Health, Bethesda, MD).

For assay [3], the system named is microglia-astrocyte interaction. Description: Microglia-astrocyte interaction (Iba1/GFAP or CX3CR1-GFP/GFAP overlap) in L4 spinal cord. Type of assay: in vivo, mice. Conditions: intrathecal, 150 µg/day, with NMO-IgG infusion.
Excerpt: However, the question remains as to what cellular and molecular mechanisms underlie microglial function in NMO. […] Under control conditions, GFAP^+ astrocytes rarely overlap with Iba1^+ microglia. However, spatial overlapping was abundant after NMO-IgG exposure. […] Specifically, on average only 17% of microglia interact with astrocytes under control conditions while 65% of microglia overlap with astrocytes after NMO-IgG infusion.
as §1

In assay [4] the test system is microglia. Description: Iba1 immunostaining of spinal cord microglia (activation or depletion). Type of assay: in vivo, mice. The text has this:
To examine microglial activation in our murine model of NMO, genetic labeling of microglia (CX3CR1^GFP/+) and immunostaining for the microglial marker Iba1 were used. […] In addition, NMO-IgG induced striking morphological transition of microglia, from “resting” ramified to “activated” bushy phenotype in time-dependent manner (FIG. 4C).
Microglial activation after NMO-IgG infusion indicates a potential role for microglia in NMO pathogenesis. To test this idea, microglia ablation approaches were utilized to directly examine the requirement of microglia in NMO-induced motor deficits. […].
TM (Sigma) was administered as a solution in corn oil (Sigma) to mice over 4 weeks of age via i.p. injection. Animals received four doses of TM (150 mg kg^-1, 20 mg mL^-1 in corn oil) in 48 hour intervals. […] Mice administered with DT only (without TM) were used as control for all ablation experiments.
Mice were deeply anaesthetized with isoflurane (5% in O2) and perfused transcardially with 20 mL PBS followed by 20 mL of cold 4% paraformaldehyde (PFA) in PBS. The spinal cord was removed and post-fixed with 4% PFA for 6 hours at 4° C. Samples were then transferred to 30% sucrose in PBS overnight. […] Cell counting and fluorescent signal intensity was quantified using ImageJ software (National Institutes of Health, Bethesda, MD).
Quantification of Iba1 cells was done with ImageJ software (NIH Image). […]

The test system of assay [5] is microglia. Description: In situ microglial process chemoattraction assay (C3a-containing pipettes). The assay is classed as cell-based, mice. On the procedure:
The cleavage of the complement component C3 produces two signaling molecules, C3a and C3b.
Hippocampal tissue slices ([…] thick) were prepared from P14-21 mice and incubated in imaging media. Microglia were visualized by GFP. For each image in the time-series, 15 z-steps spaced […] apart were collected per image ([…] total depth). Images were taken at 5 minute intervals for up to 1 hour on Scientifica 2-photon microscope with an X20 lens. Image processing and analysis was performed using NIH Image J software.

Take `CN(C)c1ccc(O)c2c1C[C@H]1C[C@H]3[C@H](N(C)C)C(O)=C(C(N)=O)C(=O)[C@@]3(O)C(O)=C1C2=O` [minocycline]: in assay [1] (intrathecal, 150 µg/day, co-infused with NMO-IgG), the “effect on NMO-IgG induced motor dysfunction in rotarod test” value was “prevented the NMO-IgG induced motor dysfunction”. The “effect on motor impairment when given after onset” value in assay [1] (systemic injection after 2 days of NMO-IgG infusion) was “reversed the motor impairment”. In assay [2], the “effect on NMO-IgG upregulation of astrocyte complement C3” value is “not altered”. Moreover, the “effect on microglia-astrocyte interaction” value in assay [3] is given as “reduced microglia-astrocyte interaction”.

Consider diphtheria toxin, for which, in assay [4] (CX3CR1CreER/+:R26iDTR/+ mice after tamoxifen, 1 to 3 days after DT 50 µg/Kg i.p.), the “depletion of spinal microglia” value is given as “mostly depleted”.

With `FC(F)(F)c1ccc(CNc2ccc(Cc3c[nH]c4ncc(Cl)cc34)cn2)cn1` [PLX3397, Pexidartinib], the “motor function after NMO-IgG infusion (rotarod) versus control chow-treated group” value in assay [1] (PLX3397 chow started 7 days before NMO-IgG infusion) is “significantly better”. Also, the “depletion of microglia in the L4 spinal cord (Iba1+ cell density)” value in assay [4] (PLX3397 chow, day 5 after NMO-IgG infusion, versus control chow) is “eliminated most of the microglia”.

“C3a: signaling molecule produced by cleavage of complement component C3”: the “time to induce microglial process chemotaxis” value in assay [5] was at most 30 min.
